According to patent US20230391772A1, “METHODS AND COMPOSITIONS FOR TARGETED PROTEIN DEGRADATION” (Ranok Therapeutics (Hangzhou) Co. Ltd., priority 2020, published 2023):

Tests used:
[1] = system: NCI-H23 human non-small cell lung cancer; test: NCI-H23 CCK-8 proliferation assay; format: cell-based; details: NCI-H23 cells, 72 hr
Description: The following cancer cell lines were employed: BT-474 human breast carcinoma (ATCC, #HTB-20); MIA PaCa-2 human pancreatic carcinoma [2 copies KRAS(G12C)](ATCC, #CRL-1420); NCI-H23 human non-small cell lung cancer [1 copy KRAS(G12C)](ATCC, #CRL-5800); NCI-H358 human non-small cell lung cancer [1 copy KRAS(G12C)](ATCC, #CRL-5807); LU65A human lung carcinoma (Pharmaron, Beijing, China). Cell lines were cultured essentially according to ATCC and Pharmaron recommendations.
Cancer Cell Line Proliferation (CCK-8) Assays
3-fold serial dilutions of each test compound were prepared ranging from 20 μM to 1.02 nM.
% Inhibition=100−(D−B)/(S−B)*100%. • S: Absorbance of cells treated with DMSO • D: Absorbance of compound-treated cells • B: Absorbance of medium with DMSO without cells

HSP90a protein = biological target: T1, HSP90a protein (Homo sapiens, UniProt P07900); test: HSP90α-binding fluorescent polarization (FP) assay, BODIPY-labeled RNK04010 probe; details: FP competition with RNK04010 (BODIPY-labeled), 5 nM, 300 min at 25° C.
T1 construct: purchased BPS Bioscience 50298
Procedure, shortened: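 Compound dilutions (20 μM to 5.2 nM, 2.5-fold) are combined with 5 nM final labeled probe, and HSP90a N-terminal protein is added last. Plates are shaken briefly and held at 25° C for 120 min (FITC-geldanamycin) or 300 min (BODIPY-RNK04010), then FP is measured.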

[2] = system: NCI-H358 human non-small cell lung cancer; test: NCI-H358 CCK-8 proliferation assay; format: cell-based; details: NCI-H358 cells, 72 hr
Procedure, shortened: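 Three KRAS(G12C) lines are used, MIA PaCa-2 at two mutant copies and the NSCLC lines NCI-H358 and NCI-H23 at one. Each compound is titrated 3-fold from 20 μM to 1.02 nM, and proliferation is scored by CCK-8.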

C=CC(=O)N1CCN(c2nc(NCCC(=O)N3CCC(CN4CCN(Cc5ccc(-n6c(C(=O)NCC(F)(F)F)nnc6-c6cc(C)c(O)cc6O)cc5)CC4)CC3)nc3c2CCN(c2cc(O)cc4ccccc24)C3)CC1 [Compound 10, 4-(4-((4-((1-(3-((4-(4-acryloylpiperazin-1-yl)-7-(3-hydroxynaphthalen-1-yl)-5,6,7,8-tetrahydropyrido[3,4-d]pyrimidin-2-yl)amino)propanoyl)piperidin-4-yl)methyl)piperazin-1-yl)methyl)phenyl)-5-(2,4-dihydroxy-5-methylphenyl)-N-(2,2,2-trifluoroethyl)-4H-1,2,4-triazole-3-carboxamide, trifluoroacetic acid]
EC50 [1]: 0.1 to 1 µM | IC50 (HSP90a protein): 0.1 to 1 µM | EC50 [2]: 0.1 to 1 µM

C=CC(=O)N1CCN(c2nc(NCCC(=O)N3CCC(Cc4ccc(-n5c(C(=O)NCC(F)(F)F)nnc5-c5cc(C(C)C)c(O)cc5O)cc4)CC3)nc3c2CCN(c2cc(O)cc4ccccc24)C3)CC1 [Compound 11, 4-(4-((1-(3-((4-(4-acryloylpiperazin-1-yl)-7-(3-hydroxynaphthalen-1-yl)-5,6,7,8-tetrahydropyrido[3,4-d]pyrimidin-2-yl)amino)propanoyl)piperidin-4-yl)methyl)phenyl)-5-(2,4-dihydroxy-5-isopropylphenyl)-N-(2,2,2-trifluoroethyl)-4H-1,2,4-triazole-3-carboxamide, trifluoroacetic acid]
EC50 [1]: > 1 µM | IC50 (HSP90a protein): > 1 µM | EC50 [2]: 0.1 to 1 µM

C=CC(=O)N1CCN(c2nc(OCCC(=O)N3CCC(CN4CCN(Cc5ccc(-n6c(O)nnc6-c6cc(C(C)C)c(O)cc6O)cc5)CC4)CC3)nc3c2CCN(c2cc(O)cc4ccccc24)C3)CC1 [Compound 15, 1-(4-(2-(3-(4-((4-(4-(3-(2,4-dihydroxy-5-isopropylphenyl)-5-hydroxy-4H-1,2,4-triazol-4-yl)benzyl)piperazin-1-yl)methyl)piperidin-1-yl)-3-oxopropoxy)-7-(3-hydroxynaphthalen-1-yl)-5,6,7,8-tetrahydropyrido[3,4-d]pyrimidin-4-yl)piperazin-1-yl)prop-2-en-1-one, trifluoroacetic acid]
EC50 [1]: 0.1 to 1 µM | IC50 (HSP90a protein): < 0.1 µM | EC50 [2]: 0.1 to 1 µM

C=CC(=O)N1CCN(c2nc(NCCC(=O)N[C@H](C)c3ccc(CN4CCC(Cc5ccc(-n6c(O)nnc6-c6cc(C(C)C)c(O)cc6O)cc5)CC4)cc3)nc3c2CCN(c2cc(O)cc4ccccc24)C3)CC1 [Compound 18, (R)-3-((4-(4-acryloylpiperazin-1-yl)-7-(3-hydroxynaphthalen-1-yl)-5,6,7,8-tetrahydropyrido[3,4-d]pyrimidin-2-yl)amino)-N-(1-(4-((4-(4-(3-(2,4-dihydroxy-5-isopropylphenyl)-5-hydroxy-4H-1,2,4-triazol-4-yl)benzyl)piperidin-1-yl)methyl)phenyl)ethyl)propanamide, trifluoroacetic acid]
EC50 [1]: 0.1 to 1 µM | IC50 (HSP90a protein): 0.1 to 1 µM | EC50 [2]: 0.1 to 1 µM

C=CC(=O)N1CCN(c2nc(NCCC(=O)N3CCC(Cc4ccc(CN(C)Cc5ccc(-n6c(O)nnc6-c6cc(C(C)C)c(O)cc6O)cc5)cc4)CC3)nc3c2CCN(c2cc(O)cc4ccccc24)C3)CC1 [Compound 19, 1-(4-(2-((3-(4-(4-(((4-(3-(2,4-dihydroxy-5-isopropylphenyl)-5-hydroxy-4H-1,2,4-triazol-4-yl)benzyl)(methyl)amino)methyl)benzyl)piperidin-1-yl)-3-oxopropyl)amino)-7-(3-hydroxynaphthalen-1-yl)-5,6,7,8-tetrahydropyrido[3,4-d]pyrimidin-4-yl)piperazin-1-yl)prop-2-en-1-one, trifluoroacetic acid]
EC50 [1]: 0.1 to 1 µM | IC50 (HSP90a protein): 0.1 to 1 µM | EC50 [2]: 0.1 to 1 µM

CCCc1cc(-c2nnc(O)n2-c2ccc(CN3CCN(CC4CCN(C(=O)CCNc5nc6c(c(N7CCN(C(C)=O)CC7)n5)CCN(c5cc(O)cc7ccccc57)C6)CC4)CC3)cc2)c(O)cc1O [Compound 59, 3-((4-(4-acetylpiperazin-1-yl)-7-(3-hydroxynaphthalen-1-yl)-5,6,7,8-tetrahydropyrido[3,4-d]pyrimidin-2-yl)amino)-1-(4-((4-(4-(3-(2,4-dihydroxy-5-propylphenyl)-5-hydroxy-4H-1,2,4-triazol-4-yl)benzyl)piperazin-1-yl)methyl)piperidin-1-yl)propan-1-one, trifluoroacetic acid]
EC50 [1]: > 1 µM | IC50 (HSP90a protein): 0.1 to 1 µM | EC50 [2]: 0.1 to 1 µM

CC(=O)N1CCN(c2nc(NCCC(=O)N[C@H](C)c3ccc(CN4CCC(Cc5ccc(-n6c(O)nnc6-c6cc(C(C)C)c(O)cc6O)cc5)CC4)cc3)nc3c2CCN(c2cc(O)cc4ccccc24)C3)CC1 [Compound 60, (R)-3-((4-(4-acetylpiperazin-1-yl)-7-(3-hydroxynaphthalen-1-yl)-5,6,7,8-tetrahydropyrido[3,4-d]pyrimidin-2-yl)amino)-N-(1-(4-((4-(4-(3-(2,4-dihydroxy-5-isopropylphenyl)-5-hydroxy-4H-1,2,4-triazol-4-yl)benzyl)piperidin-1-yl)methyl)phenyl)ethyl)propanamide, trifluoroacetic acid]
EC50 [1]: > 1 µM | IC50 (HSP90a protein): < 0.1 µM | EC50 [2]: 0.1 to 1 µM

CCC(=O)N1CCN(c2nc(NCCC(=O)N[C@H](C)c3ccc(CN4CCC(Cc5ccc(-n6c(O)nnc6-c6cc(C(C)C)c(O)cc6O)cc5)CC4)cc3)nc3c2CCN(c2cc(O)cc4ccccc24)C3)CC1 [Compound 61]
EC50 [1]: > 1 µM | IC50 (HSP90a protein): < 0.1 µM | EC50 [2]: 0.1 to 1 µM

CCc1cc(-c2nnc(C(N)=O)n2-c2ccc(CN3CCN(CC4CCN(C(=O)CCNc5nc6c(c(N7CCN(C(C)=O)CC7)n5)CCN(c5cc(O)cc7ccccc57)C6)CC4)CC3)cc2)c(O)cc1O [Compound 69, 4-(4-((4-((1-(3-((4-(4-acetylpiperazin-1-yl)-7-(3-hydroxynaphthalen-1-yl)-5,6,7,8-tetrahydropyrido[3,4-d]pyrimidin-2-yl)amino)propanoyl)piperidin-4-yl)methyl)piperazin-1-yl)methyl)phenyl)-5-(5-ethyl-2,4-dihydroxyphenyl)-4H-1,2,4-triazole-3-carboxamide, trifluoroacetic acid]
EC50 [1]: > 1 µM | IC50 (HSP90a protein): < 0.1 µM | EC50 [2]: 0.1 to 1 µM

C=CC(=O)N1CCN(c2nc(NCCC(=O)N3CCC(CN4CCN(Cc5ccc(-n6c(C(N)=O)nnc6-c6cc(CC)c(O)cc6O)cc5)CC4)CC3)nc3c2CCN(c2cc(O)cc4ccccc24)C3)CC1 [Compound 71, 4-(4-((4-((1-(3-((4-(4-acryloylpiperazin-1-yl)-7-(3-hydroxynaphthalen-1-yl)-5,6,7,8-tetrahydropyrido[3,4-d]pyrimidin-2-yl)amino)propanoyl)piperidin-4-yl)methyl)piperazin-1-yl)methyl)phenyl)-5-(5-ethyl-2,4-dihydroxyphenyl)-4H-1,2,4-triazole-3-carboxamide]
EC50 [1]: > 1 µM | IC50 (HSP90a protein): < 0.1 µM | EC50 [2]: 0.1 to 1 µM

CCC(=O)N1CCN(c2nc(NCCC(=O)N3CCC(CN4CCN(Cc5ccc(-n6c(C(N)=O)nnc6-c6cc(CC)c(O)cc6O)cc5)CC4)CC3)nc3c2CCN(c2cc(O)cc4ccccc24)C3)CC1 [Compound 75, 5-(5-ethyl-2,4-dihydroxyphenyl)-4-(4-((4-((1-(3-((7-(3-hydroxynaphthalen-1-yl)-4-(4-propionylpiperazin-1-yl)-5,6,7,8-tetrahydropyrido[3,4-d]pyrimidin-2-yl)amino)propanoyl)piperidin-4-yl)methyl)piperazin-1-yl)methyl)phenyl)-4H-1,2,4-triazole-3-carboxamide, trifluoroacetic acid]
EC50 [1]: > 1 µM | IC50 (HSP90a protein): < 0.1 µM | EC50 [2]: 0.1 to 1 µM

C=CC(=O)N1CCN(c2nc(NCCC(=O)N3CCC(CN4CCN(Cc5ccc(-n6c(O)nnc6-c6cc(C(C)C)c(O)cc6O)cc5)CC4)CC3)nc3c2CCN(c2cccc4ccccc24)C3)C[C@H]1CC#N [Compound 78, (R)-2-(1-acryloyl-4-(2-((3-(4-((4-(4-(3-(2,4-dihydroxy-5-isopropylphenyl)-5-hydroxy-4H-1,2,4-triazol-4-yl)benzyl)piperazin-1-yl)methyl)piperidin-1-yl)-3-oxopropyl)amino)-7-(naphthalen-1-yl)-5,6,7,8-tetrahydropyrido[3,4-d]pyrimidin-4-yl)piperazin-2-yl)acetonitrile]
EC50 [1]: 0.1 to 1 µM | IC50 (HSP90a protein): < 0.1 µM | EC50 [2]: 0.1 to 1 µM

C=CC(=O)N1CCN(c2nc(NCCC(=O)N3CCC(CN4CCN(Cc5ccc(-n6c(O)nnc6-c6cc(C(C)C)c(O)cc6O)cc5)CC4)CC3)nc3c2CCN(c2cccc4cccc(Cl)c24)C3)C[C@H]1CC#N [Compound 87, (R)-2-(1-acryloyl-4-(7-(8-chloronaphthalen-1-yl)-2-((3-(4-((4-(4-(3-(2,4-dihydroxy-5-isopropylphenyl)-5-hydroxy-4H-1,2,4-triazol-4-yl)benzyl)piperazin-1-yl)methyl)piperidin-1-yl)-3-oxopropyl)amino)-5,6,7,8-tetrahydropyrido[3,4-d]pyrimidin-4-yl)piperazin-2-yl)acetonitrile, trifluoroacetic acid]
EC50 [1]: 0.1 to 1 µM | IC50 (HSP90a protein): 0.1 to 1 µM | EC50 [2]: 0.1 to 1 µM
